Source: patent publication US20110245323A1, “RIG-Like Helicase Innate Immunity Inhibits VEGF-Induced Tissue Responses” (Yale University, priority 2006, published 2011)
Entries after “also recorded” stand apart in the source; their conditions may differ.

Assays:
Type in all cases: in vivo, mouse
[1] = tested on: transgenic hVEGF; test: BAL levels of transgenic VEGF by ELISA; conditions: Tg+ mice, Poly(I:C) vs vehicle; doses <30 μg
Text: WT and CC10-rtTA-VEGF mice were used in these studies. The latter used the Clara cell 10-kDa protein (CC10) promoter and two transgenic constructs to target VEGF to the lung in an externally regulatable fashion. The human (h) VEGF165 transgene in these mice was activated via the administration of doxycycline (dox) as previously described (Lee et al., 2004, Nat Med 10:1095-1103). In the wild type (WT) mice on normal or dox water and the Tg+ mice on normal water, hVEGF levels in bronchoalveolar lavage fluids (BAL) were <10 pg/ml. Increased levels of BAL VEGF were noted within 24 hours and steady state levels between 0.5 and 1.2 ng/ml were seen after 1 week of dox administration (FIG. 28).
(§1) To define the effects of Poly(I:C) a number of protocols were employed. In most experiments, a pretreatment-2 week protocol was employed. In these experiments, WT and Tg+ mice were treated with Poly(I:C) (30 μg in 50 lambda unless otherwise indicated; Amersham Biosciences, N.J.) or vehicle control via nasal aspiration and transgene activation was accomplished via the administration of dox (0.5 mg/ml) in the animal's drinking water 24 hours later. The Poly(I:C) was administered every other day and the dox was administered continuously for up to 2 weeks.
ELISA assay kits for VEGF and IL-13 were purchased from R&D Systems (Minneapolis, Minn.).

[2] = tested on: CC10-rtTA-VEGF165 transgenic mice; test: VEGF-induced vascular permeability (Evans blue dye extravasation, lung wet to dry weight ratio, BAL protein)
Experimental: as §1
(§2) Lastly, in selected experiments post-transgene activation protocols were employed. In these experiments dox was administered for 2 days or 2 weeks. The Poly(I:C) was then administered via intranasal aspiration every other day for 2 weeks as disclosed elsewhere herein. In selected pre-treatment and post-transgene activation experiments, unmethylated CpG (CpG-B) (Keck Center, Yale University) was also employed at similar doses. At the end of these intervals, assessments of angiogenesis (anti-CD31 immunohistochemistry), vascular permeability (Evan's blue dye extravasation, wet to dry lung weight measurements, BAL protein concentration), BAL and tissue inflammatory cell infiltration and mucus metaplasia (periodic acid-Schiff (PAS) staining, MUC5AC immunoblotting) were undertaken. In all cases experiments were designed to compare Tg− and Tg+ mice on normal water and Tg− and Tg+ mice on dox water.
Lungs were excised en bloc and extrapulmonary tissues were removed. They were then weighed, placed in a desiccating oven at 65° C. for 48 hours and reweighed.
In some instances, animal lungs were excised en bloc after intravascular perfusion and weighed. They were then put into a SpeedVac system (ThermoSavant; Milford, Mass.), desiccated at 60° C. overnight, and reweighed.
Evans blue dye (EBD) (Sigma-Aldrich Inc.) in 0.9% saline at a concentration of 5 mg/ml was used to assess plasma leakage as previously described (Lee et al., 2004, Nat Med 10:1095-1103). The results are expressed as the ratio of the EBD absorbance at 620 nm of paired lung homogenates and serum.
BAL was undertaken and protein levels were assessed using the Dc Protein Assay Kit (Bio-Rad Laboratories, Hercules, Calif.) according to manufacturer's instructions. The optical density of each sample was read at 750 nm wave length with a Smartspec 3000 Spectrophotometer (Bio-Rad Laboratories).

[3] = tested on: CC10-rtTA-VEGF165 transgenic mice; test: VEGF-induced angiogenesis, anti-CD31 immunohistochemistry and vessel area density; conditions: for VEGF-induced angiogenesis (vascular density, appearance, sprouting): pretreatment starting 1 day before dox, vs vehicle
Experimental: The CC10-rtTA-VEGF165 transgenic mice used in this study were generated and used as described previously (Lee et al., 2004, Nature Medicine 10:1095-103), which reference is incorporated herein in its entirety. These animals were housed under barrier conditions in the animal facility at Yale University School of Medicine. In these experiments 6-8 week old transgenic (Tg+) animals and their transgene negative littermate controls (Tg−) were randomized to receive water with doxycycline (dox) (0.5 mg/ml) or normal water. Two weeks later they were sacrificed and the VEGF-induced phenotype was evaluated as described below (Lee et al., 2004, Nature Medicine 10:1095-103).
To define the effects of these agents on the tissue responses induced by VEGF, two experimental procedures were used. In the first, a pretreatment protocol was used. In these experiments the noted innate immunity agonist ([…] unless otherwise indicated) or its vehicle control (PBS) were administered intranasally and aspirated into the lungs of randomized Tg+ and Tg− mice starting one day before the Dox water treatment. The doses were administered to the mice every other day during the 2 week doxyxycline (dox) treatment interval.
To determine if the innate immunity agonists altered established VEGF-induced tissue responses, a “post treatment” protocol was used in selected experiments. In these experiments the innate immunity agonist was administered 2 days or 14 days after the doxycycline and VEGF-induced responses were evaluated 2 weeks later.
as §1
In selected experiments a pretreatment protocol and shorter treatment interval was employed. In these experiments, WT and Tg+ mice were treated with Poly(I:C) (30 μg/mouse/dose in 50 μl) or vehicle control via nasal aspiration and transgene activation was accomplished with dox 24 hours later. The animals were then randomized to not receive or receive one additional dose of Poly(I:C) 24 hours later and dox was administered continuously during this 2 week interval.
as §2

[4] = tested on: IFNAR1; test: Poly(I:C) regulation of VEGF responses in IFNAR1 null VEGF Tg+ mice
Text: TLR3^−/−-mice were a gift from Dr. Richard A. Flavell (Yale University), MAVS null mice were a gift from Dr Zijian J. Chen (U of Texas Southwestern) (Sun et al., 2006, Immunity 24:633-642), double stranded RNA-dependent protein kinase null mutant mice (PKR^−/−) were a gift from Dr. Bryan R. G. Williams (Cleveland Clinic Foundation) (Yang et al., 1995, Embo J 14:6095-6106) and IFNAR1 null mice were obtained from Dr. Richard Enelow (Dartmouth). These mice were bred with the VEGF Tg+ mice to generate transgenic mice with wild type (+/+) or null (−/−) TLR3, MAVS, PKR or IFNAR1 loci. Thus, in each given experiment, the effects in transgene negative (Tg−) and transgenic (Tg+) mice with WT and null TLR3, MAVS, PKR or IFNAR1 loci were compared.
as §1, with “weeks. […]” for “weeks.”

[5] = Tg+ mice, pretreatment, vs vehicle
[6] = pretreatment, highest dose tested

Q: Which results are given for “polyinosinic-polycytidylic acid [Poly(I:C)]”?
A: levels of production of transgenic VEGF in BAL fluids [1]: did not alter; Evan's blue dye leakage in lungs [2, 5]: lower levels; VEGF-induced permeability alterations (Evans blue dye extravasation, lung wet to dry weight ratios, BAL protein) [2, 5]: inhibited; levels of protein in BAL fluids [2, 5]: lower levels; VEGF-induced vascular permeability alterations, delayed administration ([2]; given 48 hours or 14 days after dox-induced transgene activation): significant inhibition; lowest dose with significant inhibition of VEGF-induced permeability alterations ([2]; pretreatment): 5 µg; dose with maximal inhibition of VEGF-induced permeability alterations [2, 6]: 30 µg; VEGF-induced vascular responses, delayed administration ([3]; Tg+ mice, given 2 days (48 hours) or 14 days (2 weeks) after transgene activation with dox): significant decrease; also recorded: significant inhibition; VEGF-induced angiogenesis (vascular density, appearance, sprouting) ([3]; Tg+ mice): inhibited; VEGF-induced angiogenesis (vascular density, appearance, sprouting) ([3]; Tg+ mice, listed as poly(I:C)): markedly decreased; Vascularity (%) ([3]; VEGF-induced tissue responses, TLR agonist administration, PBS control 43): 28.7%; lowest dose with significant inhibition of VEGF-induced angiogenesis ([3]; pretreatment): 5 µg; dose with maximal inhibition of VEGF-induced angiogenesis [3, 6]: 30 µg; vascular density after as little as 1 dose ([3]; shorter treatment interval, 1 dose before dox): significant decrease; ability to inhibit VEGF-induced angiogenesis, edema, inflammation and mucin production in Tg+ mice with null mutations of IFNAR1 ([4]; 30 μg pretreatment, 2 weeks): significantly decreased; ability to inhibit Erk, FAK, Akt and eNOS signaling pathways in mice lacking the IFNAR1 receptor ([4]; Tg+ mice lung immunoblot): significantly decreased
